We go through 20 compounds from PMC8002023, “3D Pharmacophore-Based Discovery of Novel KV10.1 Inhibitors with Antiproliferative Activity” (Cancers, 2021).

Like-named read-outs stand apart in the source and are kept apart here.

The subject of series [1] is Panc1 cells. Kind of series: Cell growth in 2D culture (Incucyte confluence, 72 h), Panc1. It is filed as cell-based. The following applies: Homo sapiens, PANC-1, no KV10.1 and high hERG expression. The protocol:
(§1) Cell lines MCF-7 (DSMZ ACC 115), PANC-1 (DSMZ ACC 783), and hTERT-RPE1 (ATCC CRL 4000) were grown in the media recommended by the cell provider in a humidified atmosphere at 5% CO2 and 37 °C. For cell growth experiments, 10^4 cells/well were seeded in 96-well flat bottom culture plates (Corning) and allowed to grow for 24 h. The compounds were then added in the corresponding growth medium, and the plate was imaged every hour for 72 h (two images per well and eight wells per condition in two independent experiments for compound 8 and five for ZVS-08 and compound 1) in an Incucyte system (Sartorius/Essen biosciences). Culture confluence was determined in the phase contrast images and is expressed as percent confluence per well. The growth was then normalised to the value in the absence of compounds.
KV10.1 inhibitors with a favourable pharmacological profile are promising candidates for cancer therapy. […] Different concentrations of the compounds were added to the culture medium and the growth of the cell was monitored over 72 h (Figure 14).
(In general: hERG is a cardiac potassium channel; its block is linked to QT prolongation.)

The subject of series [2] is Colo357 tumour spheroids. Briefly: Apoptosis (caspase 3/7 reporter) in tumour spheroids. The note with it: 50 µM, caspase reporter fluorescence over 72 h, 8.9 µM cycloheximide as sensitizer. In kind it is cell-based. The protocol: Spheroids were cultured in round bottom ultra-low attachment 96-well plates (Corning) at a density of 5000 cells/well in 2% Matrigel (Corning) and centrifuged at 1000× g for 10 min. Spheroid formation was monitored continuously in the Incucyte system and treatments were added once spheroids were formed. As apoptosis sensitizer, 8.9 µM cycloheximide was added to controls and treated spheroids. Caspase 3/7 green reagent (Sartorius; 1:1000) was used as recommended by the manufacturer. Caspase 3/7 reagent substrate crosses the cell membrane and its cleavage by activated caspase-3/7 results in the release of a DNA dye and fluorescent staining of nuclear DNA.
To test the ability of the compounds to inhibit tumour progression in a more predictive system, we performed experiments on tumour spheroids of the pancreatic cancer cell line Colo357, which grows efficiently in this culture modality. The cells were seeded in the presence of Matrigel (see methods), allowed to form spheroids, and the compounds (50 µM) were added to the growth medium. The control contained the same amount of the vehicle (0.5% DMSO). Apoptosis was monitored by addition of a fluorescent […] activity reporter at the same time as the compounds. Cleavage of the reporter by caspase results in green florescence, and the intensity of the fluorescence was recorded over 72 h.

Series [3] has as its target T1, KV10.1 (Homo sapiens, UniProt O95259).
T1 construct: expressed in transfected cells
T1 sequence (O95259 1-962 isoform O95259-2): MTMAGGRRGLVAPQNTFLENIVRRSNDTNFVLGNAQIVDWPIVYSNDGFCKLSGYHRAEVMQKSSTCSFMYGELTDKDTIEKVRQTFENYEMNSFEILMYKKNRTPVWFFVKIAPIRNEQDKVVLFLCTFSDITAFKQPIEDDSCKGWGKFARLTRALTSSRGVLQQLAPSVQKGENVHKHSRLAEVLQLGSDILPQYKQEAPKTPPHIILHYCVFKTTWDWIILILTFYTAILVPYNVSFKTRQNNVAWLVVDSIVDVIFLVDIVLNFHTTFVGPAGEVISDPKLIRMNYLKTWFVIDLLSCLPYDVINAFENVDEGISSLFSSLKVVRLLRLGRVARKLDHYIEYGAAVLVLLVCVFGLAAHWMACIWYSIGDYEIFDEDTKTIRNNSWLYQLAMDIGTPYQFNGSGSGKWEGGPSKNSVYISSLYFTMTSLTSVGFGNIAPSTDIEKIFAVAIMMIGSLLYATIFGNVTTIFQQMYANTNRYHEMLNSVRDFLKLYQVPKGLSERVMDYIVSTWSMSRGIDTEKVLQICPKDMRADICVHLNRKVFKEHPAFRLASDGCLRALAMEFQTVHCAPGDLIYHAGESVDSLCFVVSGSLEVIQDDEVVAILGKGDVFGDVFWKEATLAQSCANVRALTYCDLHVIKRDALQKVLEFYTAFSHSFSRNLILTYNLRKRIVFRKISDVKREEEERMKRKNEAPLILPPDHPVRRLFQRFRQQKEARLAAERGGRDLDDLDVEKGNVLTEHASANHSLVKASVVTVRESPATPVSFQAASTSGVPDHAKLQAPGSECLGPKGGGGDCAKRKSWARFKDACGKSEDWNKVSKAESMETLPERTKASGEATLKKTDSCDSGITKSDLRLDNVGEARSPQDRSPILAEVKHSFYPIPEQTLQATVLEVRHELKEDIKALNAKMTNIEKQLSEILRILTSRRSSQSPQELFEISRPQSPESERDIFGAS
Kind of series: Whole-cell patch clamp on HEK-293 cells stably expressing KV10.1. In kind it is cell-based. The following applies: for inhibition at 10 µM: HEK293, mean ± standard error (or range); for KV10.1 inhibitory activity: SAR discussion of Table 3 (10 μM).

The target in series [4] is T1, KV10.1. The series is described as above. It is filed as cell-based. The note with it: for inhibition at 50 µM: HEK293, compound concentration 50 μM, stimuli to +40 mV, mean ± standard error, read-out: Effect on Kv10.1 (% Inhibition). The protocol: (§2) Whole-cell patch clamp experiments were performed on stably transfected HEK-293 cells. The cells were grown on fibronectin-coated glass coverslips in DMEM supplemented with 10% FCS and 300 µg/mL Zeocin. Experiments were performed at room temperature under continuous perfusion. The extracellular solution contained (mM) 160 NaCl, 2.5 KCl, 2 CaCl2, 1 MgCl2, 10 Hepes/NaOH, pH 7.4, 8 glucose. For the experiments determining conductance–voltage relationships, tail currents were made visible by substituting 60 mM NaCl by KCl ([…], 100 NaCl). Pipettes were pulled from #1 glass capillaries (WPI) to resistances of 1–3 MΩ when loaded with the intracellular solution (100 KCl, 45 N-methyl-D-glucamine, 10 1,2-bis(o-aminophenoxy)ethane-N,N,N′,N′-tetraacetic acid (BAPTA), 10 Hepes pH 7.35). Data acquisition was performed using a EPC10 Plus amplifier (HEKA Elektronik) and Patch Master software. Drug application was performed using an 8-channel fast solution exchanger (ALA). All compounds were dissolved in DMSO to a final concentration of 10 mM. 0.5% DMSO in extracellular solution served as control. KV10.1 currents were elicited by 500 ms depolarisations to +40 mV under continuous perfusion with the compound-containing or control solution. hERG current amplitudes were measured as the peak tail current during a 4 s repolarization to −40 mV after a depolarising pulse to +20 mV lasting for 2 s.
The nine selected in silico hits were tested by manual patch-clamp on a HEK293 cell line stably expressing KV10.1 [33] at a compound concentration of 50 μM (Table 1). Compound activity was tested by determining the current amplitude elicited by repetitive stimuli to +40 mV from a holding potential of −80 mV. […] The hit compound ZVS-08 represents a new structural class of KV10.1 inhibitors with diarylamine structure and has a unique structure among the acquired virtual screening hits. […] The most notable change from the purpurealidin analogues is the replacement of the hydrogen bond acceptor group of the amide bond with the oxygen atom of the nitro group of ZVS-08.

Series [5] concerns MCF-7 cells. Briefly: Cell growth in 2D culture (Incucyte confluence, 72 h), MCF-7. In kind it is cell-based. The note with it: high KV10.1 and low hERG expression. On the procedure:
as §1
KV10.1 inhibitors with a favourable pharmacological profile are promising candidates for cancer therapy. To investigate the activity of the new compounds on cancer cells proliferation, compounds ZVS-08, 1 and 8 were tested on MCF-7, a breast cancer cell line showing high KV10.1 expression and low hERG expression, and on Panc1, a pancreatic cancer cell line with undetectable KV10.1 expression and high level of hERG expression. hTERT-RPE1 cells served as a non-cancer cell line. hTERT-RPE1 cells show transient physiological expression of Kv10.1 that begins during the G2 phase of the cell cycle and extends through mitosis as present in normal cells. Different concentrations of the compounds were added to the culture medium and the growth of the cell was monitored over 72 h (Figure 14).

The target of series [6] is T2, hERG (Homo sapiens, UniProt Q12809).
T2 construct: expressed in transfected cells
T2 sequence (Q12809 whole entry): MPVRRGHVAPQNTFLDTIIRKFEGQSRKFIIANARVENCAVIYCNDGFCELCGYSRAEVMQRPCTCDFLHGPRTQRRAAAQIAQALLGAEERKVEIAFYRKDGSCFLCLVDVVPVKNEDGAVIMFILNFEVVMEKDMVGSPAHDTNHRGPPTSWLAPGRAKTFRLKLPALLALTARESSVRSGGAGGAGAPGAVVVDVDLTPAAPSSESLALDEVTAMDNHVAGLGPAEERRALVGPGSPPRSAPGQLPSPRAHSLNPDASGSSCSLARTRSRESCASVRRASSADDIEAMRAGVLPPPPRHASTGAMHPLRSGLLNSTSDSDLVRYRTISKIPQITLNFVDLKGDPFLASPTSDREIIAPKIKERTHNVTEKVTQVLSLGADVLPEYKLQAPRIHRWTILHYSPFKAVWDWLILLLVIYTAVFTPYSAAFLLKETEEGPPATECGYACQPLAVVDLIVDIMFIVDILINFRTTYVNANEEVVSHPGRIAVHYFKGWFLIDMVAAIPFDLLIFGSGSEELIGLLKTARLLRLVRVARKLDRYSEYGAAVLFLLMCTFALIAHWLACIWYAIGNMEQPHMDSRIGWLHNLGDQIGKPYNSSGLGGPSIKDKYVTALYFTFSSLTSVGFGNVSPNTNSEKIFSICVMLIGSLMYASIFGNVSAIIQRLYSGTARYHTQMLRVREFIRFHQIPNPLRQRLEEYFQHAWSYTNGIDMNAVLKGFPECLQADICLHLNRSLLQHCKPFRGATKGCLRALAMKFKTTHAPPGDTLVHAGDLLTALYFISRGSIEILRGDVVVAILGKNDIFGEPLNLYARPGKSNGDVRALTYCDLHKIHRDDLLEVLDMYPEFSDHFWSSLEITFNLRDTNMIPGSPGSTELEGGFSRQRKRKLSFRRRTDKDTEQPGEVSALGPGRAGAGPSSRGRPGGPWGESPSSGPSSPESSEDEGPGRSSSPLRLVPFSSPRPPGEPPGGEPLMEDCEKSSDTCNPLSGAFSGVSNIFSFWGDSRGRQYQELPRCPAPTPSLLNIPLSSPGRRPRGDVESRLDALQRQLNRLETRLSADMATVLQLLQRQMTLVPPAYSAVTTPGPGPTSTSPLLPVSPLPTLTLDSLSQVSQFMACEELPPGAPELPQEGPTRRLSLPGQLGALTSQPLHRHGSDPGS
Kind of series: Whole-cell patch clamp on stably transfected HEK-293 cells, hERG tail current. In kind it is cell-based. The note with it: peak tail current at −40 mV after +20 mV. The protocol:
as §2

In series [7] the target is T1, KV10.1. Details: method as in PMID 15365094. The following applies: open-channel blocker; cited from earlier work.

For orientation: IC50 means the point on the concentration scale where inhibition reaches its midpoint. In general, inhibition refers to the drop in the measured response relative to a control, in per cent. Consider `CN(C)CCCOc1ccc(Nc2ccc(C(F)(F)F)cc2[N+](=O)[O-])cc1` [Compound 1], for which the IC50 in series [1] was > 30 µM; in series [4] (HEK-293, 500 ms depolarisation to +40 mV, read-out: IC50 Kv10.1) it was 740 nM; in series [5] (Homo sapiens, MCF7, 72 h) it was 5.48 µM; in series [5], ~5 µM; in series [6], 207 nM. Further, the “apoptosis induction in tumour spheroids” value in series [2] is “required longer time, but reached similar efficacy”. Also, the inhibition at 10 µM in series [3] amounted to 87.3 ± 4.6%.
As usually defined, the melting point is the temperature of the solid-liquid transition. `O=[N+]([O-])c1ccccc1Nc1ccc(OCC(O)CN2CCOCC2)cc1` (stereo not drawn) [Compound 2] gave a melting point of 95.6 to 97.5 °C. The inhibition at 10 µM in series [3] stood at 23.9 ± 26.8%.
Take `CN(C)CC(O)COc1ccc(Nc2ccccc2)cc1` (stereo not drawn) [Compound 3]: the melting point lay within 88 to 90.1 °C. Besides, in series [3], the inhibition at 10 µM stood at 22.1 ± 33.5% and the “KV10.1 inhibitory activity” value was “almost inactive”.
With `CN(C)CCCOc1ccc(Nc2ccccc2[N+](=O)[O-])cc1` [Compound 4], the inhibition at 10 µM in series [3] was determined as 36.6 ± 19.9%.
Consider `O=[N+]([O-])c1cc(C(F)(F)F)ccc1Nc1ccc(OCC(O)CNc2ccccc2)cc1` (stereo not drawn) [Compound 5], for which the inhibition at 10 µM in series [3] is 2.53 ± 11.7%.
`CN(C)CC(O)COc1ccc(Nc2ccc(C(F)(F)F)cc2)cc1` (stereo not drawn) [Compound 6] had a melting point of 76.3 to 79.1 °C. Further, the inhibition at 10 µM in series [3] is 57.5 ± 28.4%.
`CN(C)CC(O)COc1ccc(Nc2ccccc2[N+](=O)[O-])cc1` (stereo not drawn) [Compound 7] yielded a melting point of 76.1 to 77.3 °C. Moreover, the inhibition at 10 µM in series [3] was determined as 21 ± 30.3%.
With `COC(=O)c1ccccc1Nc1ccc(OCC(O)CN(C)C)cc1` (stereo not drawn) [Compound 9], in series [3], the inhibition at 10 µM was found to be 2 ± 7.45% and the “KV10.1 inhibitory activity” value was “inactive”.
With `CN(C)CC(O)COc1ccc(Nc2ccc(C(F)(F)F)cc2N)cc1` (stereo not drawn) [Compound 10], the inhibition at 10 µM in series [3] stood at 57 ± 21.7%.
Take `CN(C)CC(O)COc1ccc(Nc2ccccc2C(=O)O)cc1` (stereo not drawn) [Compound 11]: in series [3], the inhibition at 10 µM came out at 37.7 ± 7.13% and the “KV10.1 inhibitory activity” value is “inactive”.
For `CC(=O)NCC(O)COc1ccc(Nc2ccc(C(F)(F)F)cc2[N+](=O)[O-])cc1` (stereo not drawn) [Compound 12], the inhibition at 10 µM in series [3] came to 16.6 ± 38.4%.
Consider `Cc1cccnc1C(=O)NCc1cnc(CCC2CCN(C)CC2)cn1` [ZVS-01], for which, in series [4], the inhibition at 50 µM is -1.13 ± 4.5%.
On to `CN1CCN(S(=O)(=O)c2ccc(CNC(=O)c3ccccc3)s2)CC1` [ZVS-02], for which, in series [4], the inhibition at 50 µM came to 5.03 ± 2.87%.
The same measure, in the same setting: as for `CN1CCOC(c2nccc(CNC(=O)Cc3cccs3)n2)C1` (stereo not drawn) [ZVS-03], the figure is -1.14 ± 3.47%.
With `O=C(CCN1CCOCC1)Nc1ccc(S(=O)(=O)Nc2cc(Cl)cc(Cl)c2)cc1` [ZVS-04], in series [4], the inhibition at 50 µM is -0.86 ± 0.75%.
On the same count and under the same terms, next, `CN1CCN(c2cc(CNC(=O)Cc3noc4ccccc34)ccn2)CC1` [ZVS-05]: 8.84 ± 4.92%.
Same read-out and setting: as for `CN1CCN(c2cc(CNC(=O)c3cc(=O)[nH]c4ccccc34)ccn2)CC1` [ZVS-06], the figure is -7.5 ± 4.65%; as for `COc1ccc(F)cc1C(=O)NCc1cnc(C2CCN(C)C2)[nH]1` (stereo not drawn) [ZVS-07], 4.68 ± 1.63%.
Same read-out and setting: as for `CN(C)Cc1cncc(C2CCCN2C(=O)c2ccc3c(c2)CCC3)n1` (stereo not drawn) [ZVS-09], the figure is 0.15 ± 1.67%.
Regarding `COc1ccc(CCN2CCC(Nc3nc4ccccc4n3Cc3ccc(F)cc3)CC2)cc1` [astemizole], the IC50 in series [7] is ~200 nM.
